The values below come from publication PMC3414448 (PLoS ONE, 2012).

Data set [1] deals with undifferentiated Caco-2 cells.
Data set [2] has as its system 8-hydroxydeoxyguanosine (8-OHdG).
The test system of data set [3] is differentiated Caco-2 cells.
Data set [4] concerns phosphorylated histone variant H2AX (γ-H2AX).
The test system is the same in data set [5]. This is another data set of the same source.
Data set [6] concerns 8-hydroxydeoxyguanosine (8-OHdG). This is another data set of the same source.
The test system of data set [7] is CHO-K1 cells.
The subject of data set [8] is A549 cells.
In data set [9] the test system is phosphorylated histone variant H2AX (γ-H2AX). The data set can be described thus: cells. Conditions: Homo sapiens, Caco-2, 24 h, read-out: EC50 γ-H2AX nuclear staining.
In data set [10] the test system is 8-hydroxydeoxyguanosine (8-OHdG). The data set can be described thus: cells. As to conditions: Homo sapiens, Caco-2, 24 h, read-out: EC50 8-OHdG nuclear staining.

Each structure is given as a SMILES string. Values joined by “and” are separate entries in the source; they are usually repeats but may differ in a detail not shown here. Identical values can stand only once. Like-named read-outs stand apart in the source and are kept apart here. Some results are limits rather than exact numbers.

For orientation: EC50 means the concentration at which the effect is half-maximal. In the case of `OO` [Peroxide, hydrogen peroxide], in data set [1], the “concentration at which nuclear area was significantly increased” value is given as no less than 100 µM. In addition, the “concentration at which 8-OHdG was significantly increased” value in data set [2] turned out to be 100 µM. In data set [3], the “cytotoxicity in differentiated cells” value is “Neither rotenone nor peroxide induced cytotoxicity”. Besides, in data set [4], the “concentration at which γ-H2AX staining was significantly increased” value is given as 300 µM and the “γ-H2AX staining at non-cytotoxic concentrations” value is “increased γ-H2AX staining at the highest non-cytotoxic concentration (100 µM)”. Moreover, the “concentration at which γ-H2AX staining was increased” value in [5] turned out to be 1 mM. Besides, the “concentration at which 8-OHdG staining was significantly increased” value in data set [6] is on record as “not statistically significant”. Besides, in data set [6] (read-out: EC50 8-OHdG nuclear staining), the EC50 is 5.5 µM.
On to `CO[C@@]12[C@H](COC(N)=O)C3=C(C(=O)C(C)=C(N)C3=O)N1C[C@@H]1N[C@@H]12` [MMC, mitomycin C], for which the “Cell Count (%Control)” value is 98.56 %Control and 101.70 %Control and 91.11 %Control in [7]; 98.78 %Control and 95.22 %Control and 78.78 %Control in data set [8].
For `C=C(C)[C@H]1Cc2c(ccc3c2O[C@@H]2COc4cc(OC)c(OC)cc4[C@@H]2C3=O)O1` [Rotenone, rotenone], the “concentration at which nuclear area was significantly increased” value in data set [1] (undifferentiated Caco-2, 24 hr, p<0.05) is recorded as “all rotenone concentrations”. Further, the EC50 was 1100 nM in data set [9] and 990 nM in data set [10]. The “cytotoxicity in differentiated cells” value in data set [3] was “Neither rotenone nor peroxide induced cytotoxicity”.
